Laboratory results from ChEMBL document CHEMBL5036337 (J Nat Prod, 2021).
In brackets after ≈: the same amount, converted by molar mass.

Assays:
CAL-27 = test: cells; assay type: functional, cell-based; conditions: Homo sapiens, CAL-27, 72 h
SCC-9 = test: cells; assay type: functional, cell-based; conditions: Homo sapiens, SCC-9, 72 h
[1] = Stability in mouse blood assessed as compound recovery measured at 25 degC for 4 hrs
[2] = Stability in mouse blood assessed as compound remaining measured at 20 degC for 8 hrs
[3] = Stability in mouse blood assessed as compound remaining measured at - 80 degC for 4 months
[4] = Half life in C57BL/6 mouse at 500 mg/kg, iv administered as Antitumor B; conditions: in vivo
[5] = Volume of distribution in C57BL/6 mouse at 500 mg/kg, iv administered as Antitumor B; conditions: in vivo
[6] = Clearance in C57BL/6 mouse at 500 mg/kg, iv administered as Antitumor B; conditions: in vivo
[7] = Half life in C57BL/6 mouse at 500 mg/kg, po; conditions: in vivo
[8] = Half life in C57BL/6 mouse at 4000 mg/kg, po; conditions: in vivo
[9] = Half life in C57BL/6 mouse at 500 mg/kg, ip qd measured after 7 days; conditions: in vivo, 168 h
[10] = mouse, in vivo, iv, 500 mg/kg
[11] = in vivo, po, 500 mg/kg, 24 h
[12] = in vivo, po, 4000 mg/kg, 24 h
[13] = in vivo, ip, 500 mg/kg, 24 h
[14] = C57BL/6, mouse, in vivo, ip, 500 mg/kg, 168 h
[15] = in vivo, ip, 500 mg/kg, 24 h; remark: listed apart in the source
[16] = in vivo, ip, 500 mg/kg, 168 h
[17] = in vivo, ip, 500 mg/kg, 168 h; remark: listed apart in the source
in vivo [18] = conditions: C57BL/6, mouse, iv, 500 mg/kg
in vivo [19] = conditions: C57BL/6, mouse, iv, 500 mg/kg; remark: listed apart in the source
in vivo [20] = conditions: C57BL/6, mouse, po, 500 mg/kg
in vivo [21] = conditions: C57BL/6, mouse, po, 500 mg/kg; remark: listed apart in the source
in vivo [22] = conditions: C57BL/6, mouse, po, 500 mg/kg; remark: listed apart in the source
in vivo [23] = conditions: C57BL/6, mouse, po, 500 mg/kg; remark: listed apart in the source
in vivo [24] = conditions: C57BL/6, mouse, po, 4000 mg/kg
in vivo [25] = conditions: C57BL/6, mouse, po, 4000 mg/kg; remark: listed apart in the source
in vivo [26] = conditions: C57BL/6, mouse, po, 4000 mg/kg; remark: listed apart in the source
in vivo [27] = conditions: C57BL/6, mouse, po, 4000 mg/kg; remark: listed apart in the source
in vivo [28] = conditions: C57BL/6, mouse, ip, 500 mg/kg
in vivo [29] = conditions: C57BL/6, mouse, ip, 500 mg/kg; remark: listed apart in the source
in vivo [30] = conditions: C57BL/6, mouse, ip, 500 mg/kg; remark: listed apart in the source
in vivo [31] = conditions: C57BL/6, mouse, ip, 500 mg/kg; remark: listed apart in the source
[32] = mouse, in vivo, iv, 500 mg/kg, 24 h
[33] = mouse, in vivo, po, 500 mg/kg

SMILES	IC50 (CAL-27) [µg/mL]	IC50 (SCC-9) [µg/mL]	remaining at 4 h [1] [%]	remaining at 8 h [2] [%]	remaining at 2920 h [3] [%]	half-life [4] [h]	Vd [5] [L/kg]	half-life [8] [h]	AUC [10] [ng·h/mL]	Cmax (in vivo [18]) [ng/mL]	MRT last (in vivo [19]) [h]	Tmax (in vivo [20]) [h]	Cmax (in vivo [21]) [ng/mL]	Tmax (in vivo [24]) [h]	Cmax (in vivo [25]) [ng/mL]	MRT last (in vivo [27]) [h]	AUC at 24 h (in vivo [28]) [ng·h/mL]	AUC at 168 h (in vivo [29]) [ng·h/mL]	MRT at 24 h (in vivo [30]) [h]	MRT at 168 h (in vivo [31]) [h]	other results
O=c1[nH]cc(F)c(=O)[nH]1 [FLUOROURACIL]	0.5 (≈ 3.84 µM)	12.7 (≈ 97.6 µM)	–	–	–	–	–	–	–	–	–	–	–	–	–	–	–	–	–	–	–
O=C1CCC[C@@H]2[C@H]3CCCN4CCC[C@@H](CN12)[C@@H]34 [MATRINE]	21 (≈ 84.6 µM)	> 100	85	85	85	7.5	9.1	7.5	5170.7	3930	1.8	0.4	53.8	0.7	709	4.5	1480	1650	5.3	8	CL ([6]; C57BL/6, mouse): 13 mL/min/kg; half-life [7]: 3.8 h; t1/2 ([9]; C57BL/6, mouse): 8.2 h; AUC ([11]; C57BL/6, mouse): 120.5 ng·h/mL; AUC ([12]; C57BL/6, mouse): 3667.7 ng·h/mL; Tmax ([13]; C57BL/6, mouse): 0.2 h; Tmax [14]: 0.5 h; Cmax ([15]; C57BL/6, mouse): 815.9 ng/mL; Cmax ([16]; C57BL/6, mouse): 551.8 ng/mL; AUC ([17]; C57BL/6, mouse): 2254 ng·h/mL; AUC(0-inf) (in vivo [22]): 124 ng·h/mL; MRT last (in vivo [23]): 3.6 h; AUC(0-inf) (in vivo [26]): 5370 ng·h/mL
COc1c2ccccc2nc2occc12 [DICTAMNINE]	19.7 (≈ 98.9 µM)	27.8 (≈ 140 µM)	85	85	85	–	0.6	–	–	–	–	–	–	–	–	–	1	23.2	0.4	11.7	–
Oc1ccc2c(c1)OCC1c3cc4c(cc3OC21)OCO4 (configuration not stated)	11.5 (≈ 40.5 µM)	94.9 (≈ 334 µM)	85	85	85	4.9	4.1	3.5	71.5	67.5	3	0.6	0.5	0.7	16.4	3.6	5.6	47.4	0.3	8.4	CL ([6]; mouse): 10 mL/min/kg; t1/2 ([9]; mouse): 2.2 h; AUC [32]: 68.9 ng·h/mL; F [33]: 4.6%; AUC ([11]; mouse): 0.4 ng·h/mL; AUC ([12]; mouse): 25.5 ng·h/mL; Tmax ([13]; mouse): 0.2 h; Cmax ([15]; mouse): 15.6 ng/mL; Cmax ([16]; mouse): 17.2 ng/mL; AUC ([17]; mouse): 51.8 ng·h/mL; MRT last (in vivo [23]): 0.6 h; AUC(0-inf) (in vivo [26]): 27.5 ng·h/mL
CC1=C2C(=O)O[C@@H](c3ccoc3)[C@]2(C)CCC1 [FRAXINELLONE]	22.4 (≈ 96.4 µM)	43.4 (≈ 187 µM)	85	85	85	5.2	2.9	–	166.8	34.3	3.2	–	–	0.5	4.7	0.4	2.7	–	0.6	–	CL ([6]; mouse): 6.7 mL/min/kg; AUC [32]: 95.2 ng·h/mL; F [33]: 0.2%; AUC ([12]; mouse): 1.1 ng·h/mL; Cmax ([15]; mouse): 4.1 ng/mL
